Results as given in ChEMBL document CHEMBL3991601, “The target landscape of clinical kinase drugs” (Science, 2017).
Active and inactive are the calls of the source. Cut-off read from the data, not from the text of the source, for most assays here: actives have a measured Kd and inactives only a lower limit.

How the values were obtained:
[1] = biological target: T1, Peroxisomal acyl-coenzyme A oxidase 1 (Homo sapiens, UniProt Q15067)
T1 sequence (Q15067 whole entry): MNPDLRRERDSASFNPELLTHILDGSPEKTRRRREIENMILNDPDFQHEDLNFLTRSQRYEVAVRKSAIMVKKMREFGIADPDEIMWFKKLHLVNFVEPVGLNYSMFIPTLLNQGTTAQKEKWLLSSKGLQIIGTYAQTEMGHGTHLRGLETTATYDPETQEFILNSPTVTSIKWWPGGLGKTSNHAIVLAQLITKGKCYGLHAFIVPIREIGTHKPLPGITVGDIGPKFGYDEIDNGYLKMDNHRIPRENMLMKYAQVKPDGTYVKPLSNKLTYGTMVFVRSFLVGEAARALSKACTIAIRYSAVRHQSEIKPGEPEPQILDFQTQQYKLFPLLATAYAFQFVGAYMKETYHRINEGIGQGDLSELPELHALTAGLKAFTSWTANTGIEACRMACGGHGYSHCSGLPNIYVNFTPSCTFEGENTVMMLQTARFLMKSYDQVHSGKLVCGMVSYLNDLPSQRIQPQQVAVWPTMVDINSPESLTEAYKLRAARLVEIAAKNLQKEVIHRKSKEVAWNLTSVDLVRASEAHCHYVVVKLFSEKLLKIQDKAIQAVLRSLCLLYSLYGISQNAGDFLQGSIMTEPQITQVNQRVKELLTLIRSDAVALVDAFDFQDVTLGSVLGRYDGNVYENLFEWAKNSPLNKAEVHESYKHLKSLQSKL

Aurora kinase B = Aurora kinase B (Homo sapiens, UniProt Q96GD4)
Aurora kinase B, sequence (Q96GD4 whole entry): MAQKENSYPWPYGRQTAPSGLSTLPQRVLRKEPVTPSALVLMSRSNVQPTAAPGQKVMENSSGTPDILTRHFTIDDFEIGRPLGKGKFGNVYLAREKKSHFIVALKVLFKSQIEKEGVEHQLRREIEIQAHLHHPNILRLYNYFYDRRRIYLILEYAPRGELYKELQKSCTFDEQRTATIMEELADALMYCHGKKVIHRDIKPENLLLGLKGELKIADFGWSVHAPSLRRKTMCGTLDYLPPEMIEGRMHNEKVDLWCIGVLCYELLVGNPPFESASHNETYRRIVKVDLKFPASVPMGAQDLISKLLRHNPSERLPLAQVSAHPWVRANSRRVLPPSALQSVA

[2] = biological target: T2, Receptor-type tyrosine-protein kinase FLT3 (Homo sapiens, UniProt P36888)
T2 sequence (P36888 whole entry): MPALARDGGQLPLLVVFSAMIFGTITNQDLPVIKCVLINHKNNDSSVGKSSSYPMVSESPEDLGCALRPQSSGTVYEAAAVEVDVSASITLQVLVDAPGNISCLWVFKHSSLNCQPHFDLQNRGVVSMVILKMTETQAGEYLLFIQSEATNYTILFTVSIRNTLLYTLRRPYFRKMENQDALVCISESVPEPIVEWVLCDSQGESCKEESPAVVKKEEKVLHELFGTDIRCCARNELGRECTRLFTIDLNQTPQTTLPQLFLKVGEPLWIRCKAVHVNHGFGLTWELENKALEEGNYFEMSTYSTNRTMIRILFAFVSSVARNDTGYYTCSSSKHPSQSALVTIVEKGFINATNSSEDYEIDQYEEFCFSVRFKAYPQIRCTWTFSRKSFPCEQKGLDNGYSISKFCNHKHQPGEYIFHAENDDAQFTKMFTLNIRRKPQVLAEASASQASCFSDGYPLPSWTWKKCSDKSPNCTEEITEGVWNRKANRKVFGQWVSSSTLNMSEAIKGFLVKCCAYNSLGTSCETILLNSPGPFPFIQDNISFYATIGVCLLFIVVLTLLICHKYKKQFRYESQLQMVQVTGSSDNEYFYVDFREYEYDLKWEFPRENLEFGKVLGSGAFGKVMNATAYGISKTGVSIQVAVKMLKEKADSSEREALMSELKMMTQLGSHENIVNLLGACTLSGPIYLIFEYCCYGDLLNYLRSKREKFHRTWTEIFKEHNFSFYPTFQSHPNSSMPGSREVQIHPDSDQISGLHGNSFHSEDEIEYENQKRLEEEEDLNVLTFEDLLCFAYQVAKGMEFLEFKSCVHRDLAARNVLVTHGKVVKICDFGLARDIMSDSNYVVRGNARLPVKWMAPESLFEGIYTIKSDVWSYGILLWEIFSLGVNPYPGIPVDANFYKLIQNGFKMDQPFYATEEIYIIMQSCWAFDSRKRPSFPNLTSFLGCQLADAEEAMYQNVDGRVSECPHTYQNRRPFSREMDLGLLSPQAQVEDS

Heme oxygenase 2 = biological target: T3, Heme oxygenase 2 (Homo sapiens, UniProt P30519)
T3 sequence (P30519 whole entry): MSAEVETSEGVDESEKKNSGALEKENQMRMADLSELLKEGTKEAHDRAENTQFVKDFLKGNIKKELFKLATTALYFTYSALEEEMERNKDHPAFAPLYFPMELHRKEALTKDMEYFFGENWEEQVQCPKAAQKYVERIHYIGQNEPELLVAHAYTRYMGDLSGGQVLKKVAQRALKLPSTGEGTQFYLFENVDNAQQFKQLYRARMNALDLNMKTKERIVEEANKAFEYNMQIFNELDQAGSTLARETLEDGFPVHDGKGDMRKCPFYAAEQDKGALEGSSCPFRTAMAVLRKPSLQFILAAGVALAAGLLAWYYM

[3] = biological target: Dual specificity mitogen-activated protein kinase kinase 2 (Homo sapiens, UniProt P36507)
Dual specificity mitogen-activated protein kinase kinase 2, sequence (P36507 whole entry): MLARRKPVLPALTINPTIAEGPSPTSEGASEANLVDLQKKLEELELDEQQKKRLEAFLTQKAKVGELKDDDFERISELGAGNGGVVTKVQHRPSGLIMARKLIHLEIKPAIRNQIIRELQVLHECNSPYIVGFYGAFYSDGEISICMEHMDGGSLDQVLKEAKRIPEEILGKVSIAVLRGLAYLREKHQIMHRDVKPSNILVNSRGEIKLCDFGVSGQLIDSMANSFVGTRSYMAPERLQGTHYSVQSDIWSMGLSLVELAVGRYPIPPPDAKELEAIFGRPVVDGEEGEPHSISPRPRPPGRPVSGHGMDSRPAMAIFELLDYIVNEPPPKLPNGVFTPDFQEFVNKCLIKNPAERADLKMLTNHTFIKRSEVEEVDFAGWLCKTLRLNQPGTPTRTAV

[4] = biological target: Mitogen-activated protein kinase 11 (Homo sapiens, UniProt Q15759)
Mitogen-activated protein kinase 11, sequence (Q15759 whole entry): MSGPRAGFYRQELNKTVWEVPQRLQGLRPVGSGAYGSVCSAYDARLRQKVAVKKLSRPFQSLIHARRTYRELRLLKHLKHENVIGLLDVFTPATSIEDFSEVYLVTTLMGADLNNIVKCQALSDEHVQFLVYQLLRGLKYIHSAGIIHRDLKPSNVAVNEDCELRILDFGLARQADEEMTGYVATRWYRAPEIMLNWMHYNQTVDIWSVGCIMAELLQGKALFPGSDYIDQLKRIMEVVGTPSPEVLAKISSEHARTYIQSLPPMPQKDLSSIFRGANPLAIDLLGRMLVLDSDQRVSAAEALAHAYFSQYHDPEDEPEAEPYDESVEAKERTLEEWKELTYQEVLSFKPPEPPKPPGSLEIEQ

[5] = biological target: cAMP-dependent protein kinase catalytic subunit alpha (Homo sapiens, UniProt P17612)
[6] = biological target: Protein kinase C delta type (Homo sapiens, UniProt Q05655)
Protein kinase C delta type, sequence (Q05655 whole entry): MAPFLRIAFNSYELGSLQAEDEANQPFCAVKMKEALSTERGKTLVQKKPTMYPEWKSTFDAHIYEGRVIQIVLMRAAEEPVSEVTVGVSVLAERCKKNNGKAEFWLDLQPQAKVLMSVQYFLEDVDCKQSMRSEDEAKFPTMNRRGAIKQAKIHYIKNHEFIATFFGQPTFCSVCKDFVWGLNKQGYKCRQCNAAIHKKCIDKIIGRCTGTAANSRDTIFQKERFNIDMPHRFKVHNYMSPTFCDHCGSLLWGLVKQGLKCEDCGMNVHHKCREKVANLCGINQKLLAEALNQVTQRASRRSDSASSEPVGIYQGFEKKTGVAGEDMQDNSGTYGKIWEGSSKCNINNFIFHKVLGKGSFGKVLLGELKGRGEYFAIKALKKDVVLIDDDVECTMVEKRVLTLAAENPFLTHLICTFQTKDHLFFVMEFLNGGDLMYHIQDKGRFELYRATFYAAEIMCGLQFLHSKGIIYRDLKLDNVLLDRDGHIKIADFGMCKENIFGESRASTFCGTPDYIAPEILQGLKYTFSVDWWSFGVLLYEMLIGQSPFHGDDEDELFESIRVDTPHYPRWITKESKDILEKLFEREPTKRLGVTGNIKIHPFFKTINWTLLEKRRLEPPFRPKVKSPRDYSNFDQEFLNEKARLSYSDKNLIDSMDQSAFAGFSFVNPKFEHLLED

[7] = biological target: T4, STE20-related kinase adapter protein alpha (Homo sapiens, UniProt Q7RTN6)
T4 sequence (Q7RTN6 whole entry): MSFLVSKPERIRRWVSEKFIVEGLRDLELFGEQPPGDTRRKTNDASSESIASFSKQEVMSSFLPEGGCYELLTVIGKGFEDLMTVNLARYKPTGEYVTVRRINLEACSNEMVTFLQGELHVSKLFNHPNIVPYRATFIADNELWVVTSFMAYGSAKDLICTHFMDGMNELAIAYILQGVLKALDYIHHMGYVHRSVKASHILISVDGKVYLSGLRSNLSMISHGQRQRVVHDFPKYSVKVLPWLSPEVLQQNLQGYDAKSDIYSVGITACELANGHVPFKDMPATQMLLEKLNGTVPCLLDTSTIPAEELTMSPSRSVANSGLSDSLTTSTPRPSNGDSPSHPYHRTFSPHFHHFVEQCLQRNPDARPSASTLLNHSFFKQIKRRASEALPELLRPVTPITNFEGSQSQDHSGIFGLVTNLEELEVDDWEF

[8] = biological target: Elongation factor Tu, mitochondrial (Homo sapiens, UniProt P49411)
[9] = biological target: Cyclin-dependent kinase 6 (Homo sapiens, UniProt Q00534)
Cyclin-dependent kinase 6, sequence (Q00534 whole entry): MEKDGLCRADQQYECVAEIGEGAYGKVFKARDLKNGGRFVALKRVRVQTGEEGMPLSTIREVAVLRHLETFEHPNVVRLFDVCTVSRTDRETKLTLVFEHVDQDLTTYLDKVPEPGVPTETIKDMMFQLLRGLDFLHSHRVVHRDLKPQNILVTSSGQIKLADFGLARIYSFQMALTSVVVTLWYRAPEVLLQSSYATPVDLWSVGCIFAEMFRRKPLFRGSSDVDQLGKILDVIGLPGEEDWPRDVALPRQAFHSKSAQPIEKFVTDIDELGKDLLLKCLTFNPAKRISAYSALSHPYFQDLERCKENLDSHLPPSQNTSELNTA

[10] = biological target: Dual specificity protein kinase CLK1 (Homo sapiens, UniProt P49759)
Dual specificity protein kinase CLK1, sequence (P49759 whole entry): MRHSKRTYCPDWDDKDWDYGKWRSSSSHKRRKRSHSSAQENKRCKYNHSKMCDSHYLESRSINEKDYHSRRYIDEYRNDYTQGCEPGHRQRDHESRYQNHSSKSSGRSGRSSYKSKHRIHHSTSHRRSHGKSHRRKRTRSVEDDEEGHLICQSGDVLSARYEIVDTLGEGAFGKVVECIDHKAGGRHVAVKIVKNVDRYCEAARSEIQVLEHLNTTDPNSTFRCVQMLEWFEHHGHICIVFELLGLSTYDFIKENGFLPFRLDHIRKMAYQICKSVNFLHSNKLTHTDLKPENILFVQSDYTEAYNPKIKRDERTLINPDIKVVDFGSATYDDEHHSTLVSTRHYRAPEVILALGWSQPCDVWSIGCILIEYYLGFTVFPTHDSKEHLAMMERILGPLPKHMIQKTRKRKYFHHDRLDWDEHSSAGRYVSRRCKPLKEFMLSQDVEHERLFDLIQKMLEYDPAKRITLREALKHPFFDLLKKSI
Note: in the data inactive means no Kd found up to 30 µM.

| Kd [1] | Kd (Aurora kinase B) | Kd [2] | Kd (Heme oxygenase 2) | Kd [3] | Kd [4] | Kd [5] | Kd [6] | Kd [7] | Kd [8] | Kd [9] | Kd [10] | SMILES |
| --- | --- | --- | --- | --- | --- | --- | --- | --- | --- | --- | --- | --- |
| > 30 µM (inactive) | > 30 µM (inactive) | > 30 µM (inactive) | > 30 µM (inactive) | > 30 µM (inactive) | > 30 µM (inactive) | 0.133 µM (active) | > 30 µM (inactive) | > 30 µM (inactive) | > 30 µM (inactive) | > 30 µM (inactive) | – | Cn1ncc(Cl)c1-c1cc(C(=O)N[C@H](CN)Cc2cccc(F)c2)sc1Cl [AFURESERTIB] |
| – | > 30 µM (inactive) | > 30 µM (inactive) | > 30 µM (inactive) | > 30 µM (inactive) | – | > 30 µM (inactive) | > 30 µM (inactive) | > 30 µM (inactive) | > 30 µM (inactive) | > 30 µM (inactive) | > 30 µM (inactive) | Cc1c(F)cc(C(=O)NC2CC2)cc1-c1ccc(C(=O)NCC(C)(C)C)cn1 [LOSMAPIMOD] |
| > 30 µM (inactive) | > 30 µM (inactive) | > 30 µM (inactive) | > 30 µM (inactive) | > 30 µM (inactive) | – | > 30 µM (inactive) | > 30 µM (inactive) | > 30 µM (inactive) | > 30 µM (inactive) | > 30 µM (inactive) | > 30 µM (inactive) | C[C@@H]1CN(Cc2ccc(F)cc2)[C@@H](C)CN1C(=O)c1cc2c(C(=O)C(=O)N(C)C)cn(C)c2cc1Cl [TALMAPIMOD] |
| > 30 µM (inactive) | > 30 µM (inactive) | > 30 µM (inactive) | > 30 µM (inactive) | – | > 30 µM (inactive) | > 30 µM (inactive) | > 30 µM (inactive) | > 30 µM (inactive) | > 30 µM (inactive) | > 30 µM (inactive) | > 30 µM (inactive) | CC(=O)Nc1cccc(-n2c(=O)n(C3CC3)c(=O)c3c(Nc4ccc(I)cc4F)n(C)c(=O)c(C)c32)c1 [TRAMETINIB] |

The remaining lines, values behind:

| SMILES | Kd [1] | Kd (Aurora kinase B) | Kd [2] | Kd (Heme oxygenase 2) | Kd [3] | Kd [4] | Kd [5] | Kd [6] | Kd [7] | Kd [8] | Kd [9] | Kd [10] |
| --- | --- | --- | --- | --- | --- | --- | --- | --- | --- | --- | --- | --- |
| N[C@@H]1CCCN(c2c(/C=C3\SC(=O)NC3=O)cccc2-c2ccccc2)C1 | > 30 µM (inactive) | > 30 µM (inactive) | > 30 µM (inactive) | > 30 µM (inactive) | > 30 µM (inactive) | > 30 µM (inactive) | > 30 µM (inactive) | > 30 µM (inactive) | > 30 µM (inactive) | > 30 µM (inactive) | – | – |
| Cc1ccc(S(=O)(=O)Nc2nc3ccccc3nc2Nc2ccc3nsnc3c2)cc1 | > 30 µM (inactive) | > 30 µM (inactive) | > 30 µM (inactive) | > 30 µM (inactive) | > 30 µM (inactive) | > 30 µM (inactive) | > 30 µM (inactive) | > 30 µM (inactive) | > 30 µM (inactive) | > 30 µM (inactive) | > 30 µM (inactive) | > 30 µM (inactive) |
| Cc1cc(-c2cc(O)ccc2Cl)cc2nnc(Nc3ccc(OCCN4CCCC4)cc3)nc12 | > 30 µM (inactive) | > 30 µM (inactive) | > 30 µM (inactive) | > 30 µM (inactive) | > 30 µM (inactive) | > 30 µM (inactive) | > 30 µM (inactive) | > 30 µM (inactive) | > 30 µM (inactive) | > 30 µM (inactive) | > 30 µM (inactive) | > 30 µM (inactive) |
| COCCNCc1ccc(-c2cc3nccc(Oc4ccc(NC(=S)NC(=O)Cc5ccc(F)cc5)cc4F)c3s2)nc1 [GLESATINIB] | – | > 30 µM (inactive) | 0.179 µM (active) | > 30 µM (inactive) | > 30 µM (inactive) | > 30 µM (inactive) | > 30 µM (inactive) | > 30 µM (inactive) | > 30 µM (inactive) | > 30 µM (inactive) | > 30 µM (inactive) | > 30 µM (inactive) |
| Cc1ccc(-n2nc(C(C)(C)C)cc2NC(=O)NCc2cc(F)ccc2Oc2ccc3c(cnn3CCO)c2)cc1 [PEXMETINIB] | – | > 30 µM (inactive) | > 30 µM (inactive) | > 30 µM (inactive) | > 30 µM (inactive) | 0.192 µM (active) | > 30 µM (inactive) | > 30 µM (inactive) | > 30 µM (inactive) | > 30 µM (inactive) | > 30 µM (inactive) | > 30 µM (inactive) |
| CNC(=O)c1ccc(C)c(-n2c(C)cc(OCc3ccc(F)cc3F)c(Br)c2=O)c1 [PH-797804] | > 30 µM (inactive) | > 30 µM (inactive) | > 30 µM (inactive) | > 30 µM (inactive) | > 30 µM (inactive) | – | > 30 µM (inactive) | > 30 µM (inactive) | 0.672 µM | > 30 µM (inactive) | > 30 µM (inactive) | > 30 µM (inactive) |
| CN(C)C(=O)c1cc2cnc(Nc3ccc(N4CCNCC4)cn3)nc2n1C1CCCC1 [RIBOCICLIB] | > 30 µM (inactive) | > 30 µM (inactive) | > 30 µM (inactive) | > 30 µM (inactive) | > 30 µM (inactive) | > 30 µM (inactive) | > 30 µM (inactive) | > 30 µM (inactive) | > 30 µM (inactive) | > 30 µM (inactive) | – | > 30 µM (inactive) |
| COc1cc(OC)c(/C=C/S(=O)(=O)Cc2ccc(OC)c(NCC(=O)O)c2)c(OC)c1 [RIGOSERTIB] | – | > 30 µM (inactive) | > 30 µM (inactive) | > 30 µM (inactive) | > 30 µM (inactive) | > 30 µM (inactive) | > 30 µM (inactive) | > 30 µM (inactive) | > 30 µM (inactive) | > 30 µM (inactive) | > 30 µM (inactive) | > 30 µM (inactive) |
| CN1N=C(N)c2cn([C@@H]3O[C@H](COP(=O)(O)O)[C@@H](O)[C@H]3O)c3ncnc1c23 [TRICIRIBINE PHOSPHATE] | > 30 µM (inactive) | > 30 µM (inactive) | > 30 µM (inactive) | > 30 µM (inactive) | > 30 µM (inactive) | > 30 µM (inactive) | > 30 µM (inactive) | > 30 µM (inactive) | – | > 30 µM (inactive) | > 30 µM (inactive) | – |
